Experimental data taken from patent US20250296959A1, “B7-H3 TARGETING PEPTIDES AND CONSTRUCTS THEREOF” (Mariana Oncology Inc., priority 2024, published 2025).
pKd: −log10 of the molar value. Starred links: 1 amine or outer side, 2 acyl side, 3 side chain; linkers in the order of their positions; H or OH if unused. Positions of bridges follow the written chain, without caps; N, C: chain ends. Non-standard residues stand in square brackets, D forms with d. Residues, ends and D or L forms follow the SMILES beside them. *: point of attachment. X6 = CSCC[C@H](NC(=O)c1ccc(CNC(=O)CN2CCN(CC(=O)O)CCN(CC(=O)O)CCN(CC(=O)O)CC2)cc1)C(=O)N[C@H](C(=O)N[C@@H](CCCCN*)C(=O)O)C(C)C; Ala(piperidin-4-yl) = O=C([C@H](CC1CCN([*:3])CC1)N[*:1])[*:2]; DOTA = O=C(O)CN1CCN(CC(=O)O)CCN(CC(=O)*)CCN(CC(=O)O)CC1; Phe(4-COOH) = N[C@@H](Cc1ccc(C(=O)O)cc1)C(=O)O; Trp(5-F) = N[C@@H](Cc1c[nH]c2ccc(F)cc12)C(=O)O; X1 = C[C@@H](c1ccccc1)[C@H](N[*:1])C(=O)[*:2]; γGlu = O=C(O)[C@H](CCC(=O)[*:2])N[*:1]; Ala(4-THP) = N[C@@H](CC1CCOCC1)C(=O)O; Val(3-OH) = CC(C)(O)[C@H](N)C(=O)O; pGlu = O=C1CC[C@@H](C(=O)O)N1; Tle = CC(C)(C)[C@H](N)C(=O)O; hLeu = CC(C)CC[C@H](N)C(=O)O; Nle = CCCC[C@H](N)C(=O)O; Sar = CNCC(=O)O

Target: T1, human 4lg B7-H3 (Homo sapiens, UniProt Q5ZPR3)
T1 sequence (Q5ZPR3 29-534): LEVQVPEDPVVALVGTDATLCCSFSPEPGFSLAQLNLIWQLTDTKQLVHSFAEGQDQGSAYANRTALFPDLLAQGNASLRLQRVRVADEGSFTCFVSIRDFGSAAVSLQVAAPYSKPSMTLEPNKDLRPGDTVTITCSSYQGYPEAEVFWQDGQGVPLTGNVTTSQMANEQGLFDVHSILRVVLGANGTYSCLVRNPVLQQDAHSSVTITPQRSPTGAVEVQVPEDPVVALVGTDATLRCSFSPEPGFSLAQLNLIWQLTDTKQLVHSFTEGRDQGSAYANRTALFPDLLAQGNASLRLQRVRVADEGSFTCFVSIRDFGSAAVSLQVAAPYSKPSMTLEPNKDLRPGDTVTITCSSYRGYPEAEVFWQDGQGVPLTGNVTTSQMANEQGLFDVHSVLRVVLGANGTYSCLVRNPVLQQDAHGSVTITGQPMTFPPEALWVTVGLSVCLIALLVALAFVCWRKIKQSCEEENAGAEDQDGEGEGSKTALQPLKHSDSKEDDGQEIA
Assay: Affinity determination by surface plasmon resonance (SPR) to 4Ig B7-H3
Settings: 4Ig B7-H3

[1] = SPR KD—37° C., 37° C. flow cell temperature
[2] = SPR KD—25° C., 25° C. flow cell temperature

Row | pKd [1] | pKd [2] | SMILES
1 | 8.00 to 9.00 |  | CC(C)CC[C@H](NC(=O)[C@@H]1CCC(=O)N1)C(=O)N[C@@H](Cc1ccc(O)cc1)C(=O)N[C@H]1CSSC[C@@H](C(=O)N[C@@H](Cc2c[nH]c3ccc(F)cc23)C(=O)N[C@@H](Cc2ccccc2)C(=O)N[C@H](C(=O)N[C@H](CCCCNC(=O)CN2CCN(CC(=O)O)CCN(CC(=O)O)CCN(CC(=O)O)CC2)C(=O)O)C(C)(C)O)NC(=O)[C@H](Cc2ccc(O)cc2)NC(=O)[C@H](C(C)C)NC(=O)[C@H](CC(=O)O)NC(=O)[C@H](CC2CCOCC2)NC(=O)[C@H](CC2CCNCC2)NC(=O)CNC(=O)[C@H](C(C)(C)C)NC1=O [Cpd #477, Pyroglutamate-hLeu-Y-C-Tbg-G-PipAla-ThpA-D-V-Y-C-5FW-F-hydroxyVal-dLys(DOTA)-COOH] ([pGlu][hLeu]YC[Tle]G[Ala(piperidin-4-yl)][Ala(4-THP)]DVYC[Trp(5-F)]F[Val(3-OH)][dK](DOTA)-OH; disulfide 4-12)
2 | 8.00 to 9.00 |  | CSCC[C@H](NC(=O)c1ccc(CNC(=O)CN2CCN(CC(=O)O)CCN(CC(=O)O)CCN(CC(=O)O)CC2)cc1)C(=O)N[C@H](C(=O)N[C@@H](CCCCNC(=O)[C@@H](NC(=O)[C@H](Cc1ccccc1)NC(=O)[C@H](Cc1c[nH]c2ccc(F)cc12)NC(=O)[C@@H]1CSSC[C@H](NC(=O)[C@H](Cc2ccc(O)cc2)NC(=O)[C@H](CCC(C)C)NC(C)=O)C(=O)N[C@@H](C(C)(C)C)C(=O)NCC(=O)N[C@@H](CC2CCNCC2)C(=O)N[C@@H](CC2CCOCC2)C(=O)N[C@@H](CC(=O)O)C(=O)N[C@@H](C(C)C)C(=O)N[C@@H](Cc2ccc(O)cc2)C(=O)N1)C(C)(C)O)C(=O)O)C(C)C [Cpd #482, Ac-hLeu-Y-C-Tbg-G-PipAla-ThpA-D-V-Y-C-5FW-F-hydroxyVal-εLys(Val-Met-AmBz-DOTA)-COOH] (Ac-[hLeu]YC[Tle]G[Ala(piperidin-4-yl)][Ala(4-THP)]DVYC[Trp(5-F)]F[Val(3-OH)]-X6; disulfide 3-11)
3 | > 9.00 |  | CSCC[C@H](NC(=O)c1ccc(CNC(=O)CN2CCN(CC(=O)O)CCN(CC(=O)O)CCN(CC(=O)O)CC2)cc1)C(=O)N[C@H](C(=O)N[C@@H](CCCCNC(=O)[C@@H](NC(=O)[C@@H](NC(=O)[C@H](Cc1c[nH]c2ccc(F)cc12)NC(=O)[C@@H]1CSSC[C@H](NC(=O)[C@H](Cc2ccc(O)cc2)NC(=O)[C@H](CCC(C)C)NC(C)=O)C(=O)N[C@@H](C(C)(C)C)C(=O)NCC(=O)N[C@@H](CC2CCNCC2)C(=O)N[C@@H](CC2CCOCC2)C(=O)N[C@@H](CC(=O)O)C(=O)N[C@@H](C(C)C)C(=O)N[C@@H](Cc2ccc(O)cc2)C(=O)N1)[C@@H](C)c1ccccc1)C(C)(C)O)C(=O)O)C(C)C [Cpd #517, Ac-hLeu-Y-C-Tbg-G-PipAla-ThpA-D-V-Y-C-5FW-[(2S, 3S)beta-Me-Phe]-hydroxyVal-&Lys(Val-Met-AmBz-DOTA)-COOH] (Ac-[hLeu]YC[Tle]G[Ala(piperidin-4-yl)][Ala(4-THP)]DVYC[Trp(5-F)][X1][Val(3-OH)]-X6; disulfide 3-11)
4 | > 9.00 |  | CSCC[C@H](NC(=O)c1ccc(CNC(=O)CN2CCN(CC(=O)O)CCN(CC(=O)O)CCN(CC(=O)O)CC2)cc1)C(=O)N[C@H](C(=O)N[C@@H](CCCCNC(=O)CC[C@@H]1NC(=O)[C@H](CC2CCNCC2)NC(=O)CNC(=O)[C@H](C(C)(C)C)NC(=O)[C@@H](NC(=O)[C@H](Cc2ccc(O)cc2)NC(=O)[C@H](CCC(C)C)NC(C)=O)CSSC[C@@H](C(=O)N[C@@H](Cc2c[nH]c3ccc(F)cc23)C(=O)N[C@H](C(=O)N[C@H](C(=O)N[C@H](CO)C(=O)O)C(C)(C)O)[C@@H](C)c2ccccc2)NC(=O)[C@H](Cc2ccc(O)cc2)NC(=O)[C@H](C(C)C)NC(=O)[C@H](CC(=O)O)NC1=O)C(=O)O)C(C)C [Cpd #518, Ac-hLeu-Y-C-Tbg-G-PipAla-Glu[&Lys(OH)-Val-Met-AmBz-DOTA]-D-V-Y-C-5FW-[(2S, 3S)beta-Me-Phe]-hydroxyVal-dSer-COOH] (Ac-[hLeu]YC[Tle]G[Ala(piperidin-4-yl)]E(X6)DVYC[Trp(5-F)][X1][Val(3-OH)][dS]-OH; disulfide 3-11)
5 | 6.52 to 7.00 | 6.52 to 7.00 | CSCC[C@H](NC(C)=O)C(=O)N[C@@H](Cc1ccc(O)cc1)C(=O)N[C@H]1CSSC[C@@H](C(=O)N[C@@H](Cc2c[nH]c3ccccc23)C(=O)N[C@@H](Cc2ccccc2)C(N)=O)NC(=O)[C@H](Cc2ccc(O)cc2)NC(=O)[C@H](C(C)C)NC(=O)[C@H](CC(=O)O)NC(=O)[C@H](Cc2ccc(O)cc2)NC(=O)[C@H](CCCCN)NC(=O)CNC(=O)[C@H](C(C)C)NC1=O [compound 1, Ac-M-Y-C-V-G-K-Y-D-V-Y-C-W-F-CONH2] (Ac-MYCVGKYDVYCWF-NH2; disulfide 3-11)
6 | 7.00 to 8.00 |  | CCCC[C@H](NC(C)=O)C(=O)N[C@@H](Cc1ccc(O)cc1)C(=O)N[C@H]1CSSC[C@@H](C(=O)N[C@@H](Cc2c[nH]c3ccccc23)C(=O)N[C@@H](Cc2ccccc2)C(N)=O)NC(=O)[C@H](Cc2ccc(O)cc2)NC(=O)[C@H](C(C)C)NC(=O)[C@H](CC(=O)O)NC(=O)[C@H](Cc2ccc(C(=O)O)cc2)NC(=O)[C@H](CCCCN)NC(=O)CNC(=O)[C@H](C(C)C)NC1=O [compound 24, Ac-Nle-Y-C-V-G-K-4COOHPhe-D-V-Y-C-W-F-CONH2] (Ac-[Nle]YCVGK[Phe(4-COOH)]DVYCWF-NH2; disulfide 3-11)
7 | 7.00 to 8.00 | 7.00 to 8.00 | CCCC[C@H](NC(C)=O)C(=O)N[C@@H](Cc1ccc(O)cc1)C(=O)N[C@H]1CSSC[C@@H](C(=O)N[C@@H](Cc2c[nH]c3ccccc23)C(=O)N[C@@H](Cc2ccccc2)C(N)=O)NC(=O)[C@H](Cc2ccc(O)cc2)NC(=O)[C@H](C(C)C)NC(=O)[C@H](CC(=O)O)NC(=O)[C@H](Cc2ccc(O)cc2)NC(=O)[C@H](CCCCN)NC(=O)CN(C)C(=O)[C@H](C(C)C)NC1=O [compound 26, Ac-Nle-Y-C-V-Sar-K-Y-D-V-Y-C-W-F-CONH2] (Ac-[Nle]YCV[Sar]KYDVYCWF-NH2; disulfide 3-11)
8 | 8.00 to 9.00 | 8.00 to 9.00 | CCCC[C@H](NC(C)=O)C(=O)N[C@@H](Cc1ccc(O)cc1)C(=O)N[C@H]1CSSC[C@@H](C(=O)N[C@@H](Cc2c[nH]c3ccccc23)C(=O)N[C@@H](Cc2ccccc2)C(=O)N[C@H](C(=O)N[C@H](CCCCNC(=O)CN2CCN(CC(=O)O)CCN(CC(=O)O)CCN(CC(=O)O)CC2)C(=O)O)[C@@H](C)O)NC(=O)[C@H](Cc2ccc(O)cc2)NC(=O)[C@H](C(C)C)NC(=O)[C@H](CC(=O)O)NC(=O)[C@H](Cc2ccc(O)cc2)NC(=O)[C@H](CCCCN)NC(=O)CNC(=O)[C@H](C(C)C)NC1=O [compound 28, Ac-Nle-Y-C-V-G-K-Y-D-V-Y-C-W-F-Thr-dLys(DOTA)-COOH] (Ac-[Nle]YCVGKYDVYCWFT[dK](DOTA)-OH; disulfide 3-11)
9 | 6.52 to 7.00 |  | CCCC[C@H](NC(C)=O)C(=O)N[C@@H](Cc1ccc(O)cc1)C(=O)N[C@H]1CSSC[C@@H](C(=O)N[C@@H](Cc2c[nH]c3ccccc23)C(=O)N[C@@H](Cc2ccccc2)C(=O)N[C@@H](CCC(=O)N[C@H](CCCCNC(=O)CN2CCN(CC(=O)O)CCN(CC(=O)O)CCN(CC(=O)O)CC2)C(N)=O)C(=O)O)NC(=O)[C@H](Cc2ccc(O)cc2)NC(=O)[C@H](C(C)C)NC(=O)[C@H](CC(=O)O)NC(=O)[C@H](Cc2ccc(O)cc2)NC(=O)[C@H](CCCCN)NC(=O)CNC(=O)[C@H](C(C)C)NC1=O [compound 31, Ac-Nle-Y-C-V-G-K-Y-D-V-Y-C-W-F-gE-dLys(DOTA)-CONH2] (Ac-[Nle]YCVGKYDVYCWF[γGlu][dK](DOTA)-NH2; disulfide 3-11)
10 | 7.00 to 8.00 | 8.00 to 9.00 | CCCC[C@H](NC(C)=O)C(=O)N[C@@H](Cc1ccc(O)cc1)C(=O)N[C@H]1CSSC[C@@H](C(=O)N[C@@H](Cc2c[nH]c3ccccc23)C(=O)N[C@@H](Cc2ccccc2)C(=O)N[C@H](C(N)=O)[C@@H](C)O)NC(=O)[C@H](Cc2ccc(O)cc2)NC(=O)[C@H](C(C)C)NC(=O)[C@H](CC(=O)O)NC(=O)[C@H](Cc2ccc(O)cc2)NC(=O)[C@H](CCCCN)NC(=O)CNC(=O)[C@H](C(C)C)NC1=O [compound 32, Ac-Nle-Y-C-V-G-K-Y-D-V-Y-C-W-F-Thr-CONH2] (Ac-[Nle]YCVGKYDVYCWFT-NH2; disulfide 3-11)
11 | 7.00 to 8.00 | 8.00 to 9.00 | CCCC[C@H](NC(C)=O)C(=O)N[C@@H](Cc1ccc(O)cc1)C(=O)N[C@H]1CSSC[C@@H](C(=O)N[C@@H](Cc2c[nH]c3ccccc23)C(=O)N[C@@H](Cc2ccccc2)C(=O)N[C@@H](CCC(=O)O)C(N)=O)NC(=O)[C@H](Cc2ccc(O)cc2)NC(=O)[C@H](C(C)C)NC(=O)[C@H](CC(=O)O)NC(=O)[C@H](Cc2ccc(O)cc2)NC(=O)[C@H](CCCCN)NC(=O)CNC(=O)[C@H](C(C)C)NC1=O [compound 34, Ac-Nle-Y-C-V-G-K-Y-D-V-Y-C-W-F-E-CONH2] (Ac-[Nle]YCVGKYDVYCWFE-NH2; disulfide 3-11)
12 |  | 7.00 to 8.00 | CCCC[C@H](NC(C)=O)C(=O)N[C@@H](Cc1ccc(O)cc1)C(=O)N[C@H]1CSSC[C@@H](C(=O)N[C@@H](Cc2c[nH]c3ccccc23)C(=O)N[C@@H](Cc2ccccc2)C(=O)N[C@@H](CCC(N)=O)C(=O)O)NC(=O)[C@H](Cc2ccc(O)cc2)NC(=O)[C@H](C(C)C)NC(=O)[C@H](CC(=O)O)NC(=O)[C@H](Cc2ccc(O)cc2)NC(=O)[C@H](CCCCN)NC(=O)CNC(=O)[C@H](C(C)C)NC1=O [compound 35, Ac-Nle-Y-C-V-G-K-Y-D-V-Y-C-W-F-gE-CONH2]
